The text below walks through data of ChEMBL document CHEMBL1159016, “Patellamide E: a new cyclic peptide from the ascidian Lissoclinum patella” (J Nat Prod, 1992).

The test system of the assay is HCT-116. The assay can be described thus: Cytotoxicity against human HCT116 cells. It counts as functional, cell-based.

Values after ≈ are worked out from the molar mass of the structure shown.

With `CC[C@H](C)[C@@H]1NC(=O)c2csc(n2)[C@@H](C(C)C)NC(=O)[C@H]2N=C(O[C@@H]2C)[C@H](C(C)C)NC(=O)c2csc(n2)[C@@H](Cc2ccccc2)NC(=O)[C@H]2N=C1O[C@@H]2C` [PATELLAMIDE E], the IC50 was 125 µg/mL (≈ 158 µM).

As a reminder, the IC50 is the concentration that gives 50% inhibition.
